{"source": "ChEMBL document CHEMBL1201862", "about": "“PubChem BioAssay data set” (2004)", "key": {"[1]": {"molecular_target": "T1, RNA-binding protein pos-1 (Caenorhabditis elegans, UniProt G5EF15)", "T1 sequence (G5EF15 whole entry)": "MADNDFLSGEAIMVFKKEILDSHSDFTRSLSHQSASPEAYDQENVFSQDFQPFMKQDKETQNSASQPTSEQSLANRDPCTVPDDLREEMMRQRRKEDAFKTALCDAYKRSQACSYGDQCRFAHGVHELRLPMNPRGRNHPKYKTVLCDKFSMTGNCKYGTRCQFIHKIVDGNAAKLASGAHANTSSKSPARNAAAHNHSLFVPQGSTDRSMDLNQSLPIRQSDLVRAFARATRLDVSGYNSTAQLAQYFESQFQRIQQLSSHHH", "assay": "disruptors of C. elegans POS-1 RNA interaction – biochemical, fluorescence polarization, dose response (AID 1964);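 note: purified POS-1 fused to maltose binding protein made in E. coli; potency of compounds blocking POS-1 binding to fluorescent RNA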"}, "[2]": {"tested_on": "HEK293", "assay": "optical interference in Abeta FP readout, dose response, artefact control for IDE activator project, biochemical, fluorescence polarization (AID 588442)", "format": "functional, cell-based", "conditions": "Homo sapiens"}, "[3]": {"molecular_target": "T2, Zinc finger protein mex-5 (Caenorhabditis elegans, UniProt Q9XUB2)", "T2 sequence (Q9XUB2 whole entry)": "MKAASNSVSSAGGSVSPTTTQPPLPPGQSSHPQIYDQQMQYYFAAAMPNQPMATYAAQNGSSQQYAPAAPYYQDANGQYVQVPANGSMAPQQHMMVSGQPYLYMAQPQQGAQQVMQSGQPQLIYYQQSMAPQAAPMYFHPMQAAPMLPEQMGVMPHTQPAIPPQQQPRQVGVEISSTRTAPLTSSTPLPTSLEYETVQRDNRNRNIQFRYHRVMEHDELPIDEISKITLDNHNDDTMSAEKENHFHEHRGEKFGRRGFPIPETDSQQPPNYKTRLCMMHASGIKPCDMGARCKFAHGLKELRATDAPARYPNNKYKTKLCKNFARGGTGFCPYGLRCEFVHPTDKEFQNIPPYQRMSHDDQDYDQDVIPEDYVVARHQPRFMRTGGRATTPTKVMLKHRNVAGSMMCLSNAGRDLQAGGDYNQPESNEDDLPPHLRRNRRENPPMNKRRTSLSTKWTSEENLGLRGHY", "assay": "potency of MEX-5 RNA-binding blockers – biochemical, C. elegans, fluorescence polarization, dose response (AID 1960)"}, "[4]": {"molecular_target": "T3, Insulin-degrading enzyme (Homo sapiens, UniProt P14735)", "T3 sequence (P14735 whole entry)": "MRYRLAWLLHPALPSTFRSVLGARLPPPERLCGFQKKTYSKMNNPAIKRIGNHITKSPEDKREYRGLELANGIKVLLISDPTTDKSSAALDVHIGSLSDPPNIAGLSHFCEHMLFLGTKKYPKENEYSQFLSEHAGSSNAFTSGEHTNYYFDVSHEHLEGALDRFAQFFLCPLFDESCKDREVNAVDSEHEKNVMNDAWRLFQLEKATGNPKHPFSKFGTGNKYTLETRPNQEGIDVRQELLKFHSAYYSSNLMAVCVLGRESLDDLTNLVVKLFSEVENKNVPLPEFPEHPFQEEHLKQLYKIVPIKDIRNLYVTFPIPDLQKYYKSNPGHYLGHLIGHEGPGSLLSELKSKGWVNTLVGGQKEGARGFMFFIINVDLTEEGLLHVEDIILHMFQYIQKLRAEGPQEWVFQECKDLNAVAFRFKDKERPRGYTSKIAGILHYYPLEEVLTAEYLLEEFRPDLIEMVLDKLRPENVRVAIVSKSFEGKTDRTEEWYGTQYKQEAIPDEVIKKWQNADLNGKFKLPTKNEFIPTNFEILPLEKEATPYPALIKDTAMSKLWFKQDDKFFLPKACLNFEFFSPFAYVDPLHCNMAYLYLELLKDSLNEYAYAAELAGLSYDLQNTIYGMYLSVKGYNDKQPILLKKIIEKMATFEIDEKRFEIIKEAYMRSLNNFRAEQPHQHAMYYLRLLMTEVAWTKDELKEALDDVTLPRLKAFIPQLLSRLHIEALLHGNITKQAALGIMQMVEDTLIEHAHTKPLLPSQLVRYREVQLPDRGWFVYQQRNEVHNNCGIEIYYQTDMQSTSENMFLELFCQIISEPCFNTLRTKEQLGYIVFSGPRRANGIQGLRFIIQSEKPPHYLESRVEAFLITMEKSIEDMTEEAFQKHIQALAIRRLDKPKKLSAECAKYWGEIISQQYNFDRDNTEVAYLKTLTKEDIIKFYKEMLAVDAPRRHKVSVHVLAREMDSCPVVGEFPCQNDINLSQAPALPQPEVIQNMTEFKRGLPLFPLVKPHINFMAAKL", "assay": "recombinant IDE activation, cell-free – biochemical, fluorescence polarization, counter-screen for IDE activator project, dose response (AID 588681)"}, "[5]": {"tested_on": "HEK293", "assay": "membrane integrity loss in HEK cells – cell-based, fluorescence, cytotoxicity control for IDE activator project, dose response (AID 588440);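 note: cytotoxicity by LDH release measuring loss of membrane integrity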", "format": "functional", "conditions": "Homo sapiens"}, "[6]": {"assay": "NIH-3T3 fibroblast cytotoxicity, dose response, cytotoxicity control, cell-based, fluorescence, Alamar Blue, secondary assay (AID 2327);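 note: NIH-3T3 mouse fibroblasts cultured with fluconazole at 8 µg/mL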", "format": "functional"}, "[7]": {"assay": "fluconazole-exposed Candida albicans growth modulators – fluorescence, retest, confirmation (AID 2467)", "format": "functional, cell-based"}, "[8]": {"molecular_target": "T3, Insulin-degrading enzyme", "assay": "cellular IDE activation of Abeta substrate cleavage – fluorescence polarization, HEK cells, dose response (AID 588439)", "format": "functional, cell-based"}, "[9]": {"molecular_target": "T4, High affinity choline transporter 1 (Homo sapiens, UniProt Q9GZV3)", "T4 sequence (Q9GZV3 whole entry)": "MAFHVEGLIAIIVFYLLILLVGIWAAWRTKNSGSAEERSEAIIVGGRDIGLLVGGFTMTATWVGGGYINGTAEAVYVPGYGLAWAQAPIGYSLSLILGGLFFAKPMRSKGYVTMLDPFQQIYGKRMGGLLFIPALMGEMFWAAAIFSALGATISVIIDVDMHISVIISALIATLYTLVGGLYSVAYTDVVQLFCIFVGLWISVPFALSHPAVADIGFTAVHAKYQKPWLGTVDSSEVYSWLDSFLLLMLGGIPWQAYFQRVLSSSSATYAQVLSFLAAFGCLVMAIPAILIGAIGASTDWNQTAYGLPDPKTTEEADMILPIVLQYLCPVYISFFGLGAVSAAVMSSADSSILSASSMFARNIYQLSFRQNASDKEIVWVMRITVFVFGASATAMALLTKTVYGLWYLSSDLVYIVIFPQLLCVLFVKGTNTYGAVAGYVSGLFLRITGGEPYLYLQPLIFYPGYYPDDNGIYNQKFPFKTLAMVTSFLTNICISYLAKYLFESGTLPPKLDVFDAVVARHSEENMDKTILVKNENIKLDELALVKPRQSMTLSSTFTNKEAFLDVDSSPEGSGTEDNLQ", "assay": "human choline transporter potentiators, potency – cell-based, 10-point CRC, membrane potential dye, dose response (AID 602376)", "format": "functional"}, "[10]": {"assay": "microbe, parasite or virus in culture", "format": "functional", "conditions": "Mycobacterium tuberculosis"}, "[11]": {"molecular_target": "72 kDa type IV collagenase (Homo sapiens, UniProt P08253)", "sequence (P08253 whole entry)": "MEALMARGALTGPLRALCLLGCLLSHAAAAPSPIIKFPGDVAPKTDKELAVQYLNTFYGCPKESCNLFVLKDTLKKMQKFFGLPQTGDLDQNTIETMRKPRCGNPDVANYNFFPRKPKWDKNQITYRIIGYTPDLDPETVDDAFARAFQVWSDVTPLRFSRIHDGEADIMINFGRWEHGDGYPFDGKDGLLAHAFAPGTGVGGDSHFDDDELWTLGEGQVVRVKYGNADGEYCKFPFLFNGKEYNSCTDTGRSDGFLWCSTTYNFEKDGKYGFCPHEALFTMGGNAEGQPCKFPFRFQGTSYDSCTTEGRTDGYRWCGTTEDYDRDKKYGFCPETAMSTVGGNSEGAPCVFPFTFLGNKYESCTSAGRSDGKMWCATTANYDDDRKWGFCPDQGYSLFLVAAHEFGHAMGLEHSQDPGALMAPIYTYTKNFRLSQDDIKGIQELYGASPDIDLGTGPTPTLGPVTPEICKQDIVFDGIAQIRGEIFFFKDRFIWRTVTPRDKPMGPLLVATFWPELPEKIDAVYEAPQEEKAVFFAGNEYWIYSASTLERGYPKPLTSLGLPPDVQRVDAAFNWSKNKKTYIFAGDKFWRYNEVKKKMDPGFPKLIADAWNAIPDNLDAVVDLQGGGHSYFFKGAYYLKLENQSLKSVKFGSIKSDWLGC", "assay": "Dose Response validation of uHTS RPN11 inhibitor hits using a MMP-2 Fluorescence assay.", "format": "functional"}, "[12]": {"molecular_target": "Prothrombin (Bos taurus, UniProt P00735)", "assay": "thrombin protease inhibitors – biochemical, fluorescence polarization, uHTS hits, dose response (AID 602369)", "format": "functional"}, "[13]": {"tested_on": "Vero", "assay": "cells", "format": "functional", "conditions": "Chlorocebus sabaeus"}, "[14]": {"molecular_target": "26S proteasome non-ATPase regulatory subunit 14 (Homo sapiens, UniProt O00487)", "sequence (O00487 whole entry)": "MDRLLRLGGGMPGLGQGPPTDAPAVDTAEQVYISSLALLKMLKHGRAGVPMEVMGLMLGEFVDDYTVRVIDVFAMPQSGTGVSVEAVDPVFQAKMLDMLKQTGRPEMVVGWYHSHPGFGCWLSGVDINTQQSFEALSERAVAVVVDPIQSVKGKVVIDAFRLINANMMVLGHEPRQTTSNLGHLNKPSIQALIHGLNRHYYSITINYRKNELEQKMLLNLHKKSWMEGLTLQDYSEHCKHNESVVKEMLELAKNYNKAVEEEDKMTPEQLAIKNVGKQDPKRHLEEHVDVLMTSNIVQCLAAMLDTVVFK", "assay": "inhibition of proteasome subunit RPN11 – biochemical, fluorescence polarization, uHTS hits, confirmation (AID 602368)", "format": "functional"}, "[15]": {"molecular_target": "Protein disulfide-isomerase (Homo sapiens, UniProt P07237)", "sequence (P07237 whole entry)": "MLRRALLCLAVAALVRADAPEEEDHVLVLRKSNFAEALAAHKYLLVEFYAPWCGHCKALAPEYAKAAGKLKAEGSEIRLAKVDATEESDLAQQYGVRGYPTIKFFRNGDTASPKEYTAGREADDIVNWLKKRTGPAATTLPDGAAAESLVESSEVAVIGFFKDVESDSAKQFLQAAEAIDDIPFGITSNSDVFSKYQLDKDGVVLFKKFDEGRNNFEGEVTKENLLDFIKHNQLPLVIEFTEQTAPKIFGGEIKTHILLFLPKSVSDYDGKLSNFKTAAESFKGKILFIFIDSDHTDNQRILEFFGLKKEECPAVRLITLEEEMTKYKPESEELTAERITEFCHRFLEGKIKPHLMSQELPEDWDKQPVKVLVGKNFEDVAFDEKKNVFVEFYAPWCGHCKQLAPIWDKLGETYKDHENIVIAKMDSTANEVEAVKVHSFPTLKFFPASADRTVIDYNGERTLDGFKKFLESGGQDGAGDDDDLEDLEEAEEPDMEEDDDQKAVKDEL", "assay": "inhibition of PDI-driven insulin aggregation – biochemical, turbidity, absorbance, cherry-picked samples, dose response (AID 602350)", "format": "functional"}, "[16]": {"molecular_target": "T5, ATP-dependent translocase ABCB1 (Homo sapiens, UniProt P08183)", "T5 sequence (P08183 whole entry)": "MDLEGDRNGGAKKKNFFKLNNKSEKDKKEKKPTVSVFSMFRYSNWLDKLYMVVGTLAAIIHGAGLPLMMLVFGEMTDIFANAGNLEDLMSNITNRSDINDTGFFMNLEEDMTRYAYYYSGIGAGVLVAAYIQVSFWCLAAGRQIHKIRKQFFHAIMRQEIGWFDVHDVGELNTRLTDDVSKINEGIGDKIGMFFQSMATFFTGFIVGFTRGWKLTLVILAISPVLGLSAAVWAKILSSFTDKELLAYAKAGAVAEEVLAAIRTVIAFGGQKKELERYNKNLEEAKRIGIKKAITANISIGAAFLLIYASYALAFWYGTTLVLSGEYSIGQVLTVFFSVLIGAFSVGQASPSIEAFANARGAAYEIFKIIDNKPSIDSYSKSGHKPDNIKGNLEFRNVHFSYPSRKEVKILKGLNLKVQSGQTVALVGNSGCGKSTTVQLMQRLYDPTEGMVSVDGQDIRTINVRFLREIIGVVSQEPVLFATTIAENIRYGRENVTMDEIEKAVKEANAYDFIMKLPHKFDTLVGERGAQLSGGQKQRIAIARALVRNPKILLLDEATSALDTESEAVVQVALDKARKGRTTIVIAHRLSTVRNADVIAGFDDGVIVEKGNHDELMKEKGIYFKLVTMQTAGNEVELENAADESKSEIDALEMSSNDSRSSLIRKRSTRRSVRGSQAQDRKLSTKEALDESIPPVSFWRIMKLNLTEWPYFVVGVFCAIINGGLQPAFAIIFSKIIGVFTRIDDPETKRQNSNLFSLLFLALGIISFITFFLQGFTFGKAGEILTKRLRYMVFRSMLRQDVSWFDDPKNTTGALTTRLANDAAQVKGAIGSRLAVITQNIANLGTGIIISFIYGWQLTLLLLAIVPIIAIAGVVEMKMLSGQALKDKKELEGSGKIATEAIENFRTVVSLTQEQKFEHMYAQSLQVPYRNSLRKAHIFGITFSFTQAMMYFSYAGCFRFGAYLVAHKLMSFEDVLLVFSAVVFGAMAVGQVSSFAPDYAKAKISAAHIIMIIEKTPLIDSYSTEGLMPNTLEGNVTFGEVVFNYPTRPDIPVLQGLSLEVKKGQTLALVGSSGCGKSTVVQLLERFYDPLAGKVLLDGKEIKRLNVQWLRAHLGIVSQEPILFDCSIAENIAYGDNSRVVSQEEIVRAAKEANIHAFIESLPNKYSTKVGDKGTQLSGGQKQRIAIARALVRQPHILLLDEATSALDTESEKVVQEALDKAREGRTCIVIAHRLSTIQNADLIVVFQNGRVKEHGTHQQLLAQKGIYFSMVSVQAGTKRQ", "assay": "inhibition of BCRP-mediated JC-1 efflux – Ig-MXP3 cells, flow cytometry, set 2, dose response (AID 504566);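 note: flow cytometry median green fluorescence of retained JC-1 dye; potency of efflux pump inhibition measured as rising substrate retention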", "format": "functional", "conditions": "read-out: EC50_MICROM_"}, "[17]": {"tested_on": "H9c2", "assay": "cells", "format": "functional, cell-based", "conditions": "Rattus norvegicus, H9c2, Myocardium"}, "[18]": {"molecular_target": "T5, ATP-dependent translocase ABCB1", "assay": "P-gp JC-1 efflux blockade concentration-response – Jurkat-DNR cells, flow cytometry, set 2, dose response (AID 504569);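 note: potency of pump inhibitors that raise cellular JC-1 green fluorescence up to the nicardipine level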", "format": "functional", "conditions": "read-out: EC50_MICROM_"}, "[19]": {"molecular_target": "Melanocortin receptor 4 (Homo sapiens, UniProt P32245)", "sequence (P32245 whole entry)": "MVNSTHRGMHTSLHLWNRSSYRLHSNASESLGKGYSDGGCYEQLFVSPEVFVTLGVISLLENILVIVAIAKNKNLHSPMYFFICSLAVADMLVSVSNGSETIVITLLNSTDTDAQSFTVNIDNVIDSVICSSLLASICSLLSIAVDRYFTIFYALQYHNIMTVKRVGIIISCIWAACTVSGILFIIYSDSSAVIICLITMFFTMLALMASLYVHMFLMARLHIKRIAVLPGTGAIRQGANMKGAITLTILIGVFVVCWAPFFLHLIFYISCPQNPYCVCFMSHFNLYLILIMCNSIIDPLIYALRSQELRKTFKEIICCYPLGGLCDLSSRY", "assay": "inhibitors of MC4R cAMP signaling – cell-based, TR-FRET, biased antagonists, dose response (AID 602298);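 note: antagonist potency against agonist-stimulated cAMP production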", "format": "functional"}, "[20]": {"molecular_target": "Paired box protein Pax-8 (Homo sapiens, UniProt Q06710)", "sequence (Q06710 whole entry)": "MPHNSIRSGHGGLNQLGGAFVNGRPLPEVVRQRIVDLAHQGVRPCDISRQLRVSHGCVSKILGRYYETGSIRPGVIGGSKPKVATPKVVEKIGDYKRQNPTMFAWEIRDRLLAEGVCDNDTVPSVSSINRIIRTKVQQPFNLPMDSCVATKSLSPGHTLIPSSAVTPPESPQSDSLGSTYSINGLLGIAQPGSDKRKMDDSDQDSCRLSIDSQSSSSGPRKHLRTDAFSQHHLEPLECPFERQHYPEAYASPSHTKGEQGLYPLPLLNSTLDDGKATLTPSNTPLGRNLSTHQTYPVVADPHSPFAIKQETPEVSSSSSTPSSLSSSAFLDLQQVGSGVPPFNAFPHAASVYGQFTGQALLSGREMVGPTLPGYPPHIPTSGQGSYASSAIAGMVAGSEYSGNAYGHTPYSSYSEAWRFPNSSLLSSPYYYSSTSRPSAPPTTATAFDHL", "assay": "PAX8 transcriptional activity inhibition in RMG-I – RMG-I cells, luciferase, cherry-pick, dose response (AID 687027);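 note: luciferase reporter driven by Pax8 target thyroperoxidase promoter measured by SteadyGlo luminescence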", "format": "functional, cell-based"}, "[21]": {"assay": "cAMP pathway inhibition in counterscreen cell line – TR-FRET cAMP detection, counter-screen for MC4R biased antagonist project, dose response (AID 602305);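 note: U2OS cells stimulated with forskolin near its EC80 as the cAMP inducer; potency is for inhibition of forskolin-stimulated cAMP signaling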", "format": "functional, cell-based"}, "[22]": {"assay": "general cell-killing toxicity readout – plate reader, dry powder samples, cytotoxicity control for PAX8 inhibitor project, dose response (AID 743021)", "format": "functional, cell-based"}, "[23]": {"tested_on": "HEK293", "assay": "EBV LMP1 TES2 canonical NF-kB signalling blockers – cell-based, HEK293, luciferase, cherry-pick, dose response (AID 588343)", "format": "functional", "conditions": "Homo sapiens"}, "[24]": {"molecular_target": "Glycogen synthase kinase-3 alpha (Homo sapiens, UniProt P49840)", "sequence (P49840 whole entry)": "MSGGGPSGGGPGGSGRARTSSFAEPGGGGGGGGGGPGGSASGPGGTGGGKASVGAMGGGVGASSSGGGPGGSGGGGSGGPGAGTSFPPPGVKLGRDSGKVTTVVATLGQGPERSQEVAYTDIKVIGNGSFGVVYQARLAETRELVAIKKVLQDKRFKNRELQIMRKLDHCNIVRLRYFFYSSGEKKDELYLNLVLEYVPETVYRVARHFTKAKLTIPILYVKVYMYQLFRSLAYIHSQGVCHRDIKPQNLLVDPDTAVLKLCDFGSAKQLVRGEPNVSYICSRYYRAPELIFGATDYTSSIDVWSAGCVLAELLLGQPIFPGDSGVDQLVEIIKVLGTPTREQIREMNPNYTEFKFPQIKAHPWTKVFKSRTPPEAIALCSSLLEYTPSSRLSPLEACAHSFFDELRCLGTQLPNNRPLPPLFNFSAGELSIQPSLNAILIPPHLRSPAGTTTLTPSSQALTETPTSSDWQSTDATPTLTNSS", "assay": "Inhibition of Human GSK-3 alpha Activity Measured in Biochemical System Using Microfluidics - 2063-06_Inhibitor_Dose_DryPowder_Activity_Set2. [Related pubchem assays (depositor defined):AID2709]"}, "[25]": {"molecular_target": "Cyclin-dependent kinase 5/CDK5 activator 1 (Homo sapiens, UniProt Q00535)", "assay": "human CDK5 activity blockade – biochemical, microfluidic mobility shift, dry powder, selectivity assay for GSK-3 alpha inhibitor project, dose response (AID 588430)"}, "[26]": {"molecular_target": "Glycogen synthase kinase-3 beta (Homo sapiens, UniProt P49841)", "sequence (P49841 whole entry)": "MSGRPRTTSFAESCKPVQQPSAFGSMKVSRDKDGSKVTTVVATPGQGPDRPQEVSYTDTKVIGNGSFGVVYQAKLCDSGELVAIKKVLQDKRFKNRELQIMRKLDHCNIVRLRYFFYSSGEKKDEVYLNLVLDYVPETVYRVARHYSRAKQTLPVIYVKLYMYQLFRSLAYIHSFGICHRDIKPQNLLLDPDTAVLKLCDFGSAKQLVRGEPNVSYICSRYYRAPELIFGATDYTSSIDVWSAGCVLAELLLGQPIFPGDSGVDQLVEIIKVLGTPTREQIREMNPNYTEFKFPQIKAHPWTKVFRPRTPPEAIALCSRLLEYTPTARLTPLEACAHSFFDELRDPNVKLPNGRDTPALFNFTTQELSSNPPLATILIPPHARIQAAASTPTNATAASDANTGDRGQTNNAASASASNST", "assay": "Inhibition of Human GSK-3 beta Activity Measured in Biochemical System Using Microfluidics - 2063-05_Inhibitor_Dose_DryPowder_Activity_Set2. [Related pubchem assays (depositor defined):AID2709]"}}, "note": "The source made the active and inactive calls."}
{"compound": "O=C1c2cccc3c(O)ccc(c23)C(=O)N1Cc1ccccc1", "values": [{"measurement": "EC50", "setting": "[1]", "value": "2.62 µM (active)"}, {"measurement": "EC50", "setting": "[2]", "value": "> 54.7 µM (inactive)"}, {"measurement": "EC50", "setting": "[3]", "value": "0.183 µM (inconclusive)"}, {"measurement": "EC50", "setting": "[4]", "value": "> 54.7 µM (inactive)"}, {"measurement": "IC50", "setting": "[5]", "value": "> 89.2 µM (inactive)"}, {"measurement": "EC50", "setting": "[6]", "value": "85.7 µM (active)"}, {"measurement": "EC50", "setting": "[7]", "value": "0.082 µM (active)"}, {"measurement": "EC50", "setting": "[8]", "value": "> 54.7 µM (inactive)"}]}
{"compound": "COc1cc2c(cc1OC)C(c1cccs1)N(C(S)=NC(C)C)CC2", "note": "(stereo unspecified)", "values": [{"measurement": "EC50", "setting": "[9]", "value": "17.5 µM (active)"}]}
{"compound": "COc1cc(/C=C/C(O)=C2\\C(=O)NC(=O)N(CCc3ccccc3)C2=O)ccc1O", "values": [{"measurement": "CC50", "setting": "[10]", "value": "15.9 µM (active)"}, {"measurement": "IC50", "setting": "[11]", "value": "> 100 µM (inactive)"}, {"measurement": "IC50", "setting": "[12]", "value": "40.6 µM (active)"}, {"measurement": "CC50", "setting": "[13]", "value": "17.7 µM (active)"}, {"measurement": "IC50", "setting": "[14]", "value": "29.2 µM (active)"}]}
{"compound": "CC[C@]12c3[nH]c4cc(-c5ccco5)ccc4c3CCN1C(=O)[C@@H](CC(=O)NCc1ccc(OC)c(OC)c1)C[C@@H]2C(=O)N1CCN(C(=O)c2ccco2)CC1", "values": [{"measurement": "AC50", "setting": "[15]", "value": "4.25 µM (active)"}]}
{"compound": "C#Cc1cc(N2CCN(C(=O)c3ccoc3)CC2)n2nc(-c3cccc(Cl)c3)cc2n1", "values": [{"measurement": "EC50", "setting": "[16]", "value": "1.98 µM (active)"}, {"measurement": "IC50", "setting": "[17]", "value": "> 79 µM (inactive)"}, {"measurement": "EC50", "setting": "[18]", "value": "7.34 µM (active)"}, {"measurement": "IC50", "setting": "[19]", "value": "> 64.6 µM (inactive)"}, {"measurement": "AC50", "setting": "[20]", "value": "3.79 µM (active)"}, {"measurement": "IC50", "setting": "[21]", "value": "> 64.6 µM (inactive)"}, {"measurement": "AC50", "setting": "[22]", "value": "4.43 µM (active)"}, {"measurement": "AC50", "setting": "[23]", "value": "13.4 µM (active)"}]}
{"compound": "O=C1c2ccccc2-c2onc3ccc(NCCCN4CCNC4)c1c23", "values": [{"measurement": "AC50", "setting": "[24]", "value": "0.52 µM (active)"}, {"measurement": "AC50", "setting": "[25]", "value": "76.2 µM (active)"}, {"measurement": "AC50", "setting": "[26]", "value": "0.161 µM (active)"}]}
